Converted amounts (≈) assume the structure as drawn. Read-outs that look alike come from different tables or passages of the source.
Legend:
S. aureus Newman = assay: MIC testing (broth microdilution, EUCAST); format: cell-based; details: for MIC: Staphylococcus aureus, NEWMAN
Experimental: (§1) Minimal inhibitory concentration (MIC) of the compounds in the present invention was determined using broth microdilution performed according to EUCAST guidelines (ISO20776-1:2019). S. aureus ATCC29213 and E. faecalis ATCC29212 served as quality control strains.

E. faecalis ATCC-29212 = assay: MIC testing (broth microdilution, EUCAST); format: cell-based; details: for MIC E. faecalis: E. faecalis ATCC-29212; for MIC: Enterococcus faecalis, ATCC29212, E. faecalis ATCC-29212
Experimental: as §1

S. epidermidis DSM-28765 = assay: MIC testing (broth microdilution, EUCAST); format: cell-based; details: for MIC S. epiderm.: S. epidermidis DSM-28765; for MIC: Staphylococcus epidermidis, DSM28765, S. epidermidis DSM-28765, read-out: MIC S. epiderm.
Experimental: as §1

[1] = test system: S. aureus N315 (methicillin-resistant, MRSA); assay: MIC testing (broth microdilution, EUCAST); format: cell-based; details: for MIC: Staphylococcus aureus, MRSA
Experimental: as §1

E. faecium DSM-20477 = assay: MIC testing (broth microdilution, EUCAST); format: cell-based; details: for MIC E. faecium: E. faecium DSM-20477; for MIC: Enterococcus faecium, DSM20477, E. faecium DSM-20477
Experimental: as §1

[2] = test system: E. faecium DSM-17050 (vancomycin-resistant, VRE); assay: MIC testing (broth microdilution, EUCAST); format: cell-based; details: for MIC: Enterococcus faecium
Experimental: as §1

zebrafish larvae = assay: Toxicity in zebrafish larvae (MTC / IC50); format: in vivo; details: for IC50 in zebrafish larvae: exposed 3 days post fertilization, monitored 48 h; for Selectivity Index S. aureus: zebrafish IC50 / MIC S. aureus Newman; for Selectivity Index P. falc 3D7: zebrafish IC50 vs P. falciparum 3D7
Experimental: (§2) For toxicity screening, zebrafish larvae were exposed three days post fertilization and monitored for 48 h until five days post fertilization. All malformations and pathophysiological phenotypes were noted and used to determine the inhibitory concentration (IC50) of the respective derivative against zebrafish larvae. The selectivity index (SI) was then calculated using the IC50 and the MIC of either S. aureus or P. falciparum 3D7.

[3] = test system: mature gametocytes (stages IV and V); assay: Activity against mature gametocytes (stage IV-V), bioluminescence assay; format: cell-based, P. falciparum
Experimental: Activity against gametocytes was determined using an in vitro bioluminescence assay as described previously (doi.org/10.1371/journal.pone.0035019).

[4] = Toxicity in zebrafish larvae (MTC / IC50); format: in vivo; details: zebrafish, zebrafish larvae
Experimental: as §2

[5] = test system: clinical isolates of S. aureus; assay: MIC 50/90 profiling in multidrug-resistant clinical isolates; format: cell-based; details: Staphylococcus aureus; S. aureus clinical isolates (n = 100)
Experimental: as §1
(§3) Activity of dehalogenil against multidrug-resistant clinical isolates of S. aureus (n=100) and Enterococcus spp. […] Compared to the standard of care (linezolid, daptomycin and tigecyclin), dehalogenil MIC90 was lowered in both pathogens by 20-40-fold with unimodal distribution indicating no pre-existing resistances.

E. faecium = assay: as above; format: cell-based; details: Enterococcus faecium; for MIC: read-out: MIC range; for MIC50 / MIC90: E. faecium (n = 98)
Experimental: as §1, §3

[6] = zebrafish IC50 / MIC S. aureus Newman, read-out: Selectivity Index S. aureus
[7] = zebrafish IC50 vs P. falciparum 3D7, read-out: Selectivity Index P. falc 3D7

Row | Structure (SMILES) | MIC S. aureus (S. aureus Newman) [µg/mL] | MIC E. faecalis (E. faecalis ATCC-29212) [µg/mL] | MIC S. epiderm. (S. epidermidis DSM-28765) [µg/mL] | MIC MRSA [1] [µg/mL] | MIC E. faecium (E. faecium DSM-20477) [µg/mL] | MIC VRE [2] [µg/mL] | IC50 in zebrafish larvae (zebrafish larvae) [nM] | MIC (E. faecalis ATCC-29212) [µg/mL] | further results
1 | CC1=C[C@@H](C)[C@H]2[C@@H]3C(=O)C(Cl)=C([O-])[C@H](C)C(=O)O[C@@H](C)/C=C/C=C\[C@@H](C)[C@@H]3C=C[C@@H]2C1.CC1=C[C@@H](C)[C@H]2[C@@H]3C(=O)C(Cl)=C([O-])[C@H](C)C(=O)O[C@@H](C)/C=C/C=C\[C@@H](C)[C@@H]3C=C[C@@H]2C1.CC1=C[C@@H](C)[C@H]2[C@@H]3C(=O)C(Cl)=C([O-])[C@H](C)C(=O)O[C@@H](C)/C=C/C=C\[C@@H](C)[C@@H]3C=C[C@@H]2C1.[Mg+2].[Na+] [ChB2, reference compound] | 3.2 | 1.6 | 3.2 | >3.2 | 0.4 | 0.8 | – | – | –
2 | CC1C=CC=CC(C)C2C=CC3CC4(C)OC4C(C)C3C2C(=O)CC(=O)C(C)C(=O)O1 (stereo not drawn) [Dehalogenil-Epo2] | 0.4 (≈ 0.938 µM) | 1.6 (≈ 3.75 µM) | 0.8 (≈ 1.88 µM) | 0.2 (≈ 0.469 µM) | 0.8 (≈ 1.88 µM) | 0.4 (≈ 0.938 µM) | 1220 | – | Selectivity Index S. aureus (zebrafish larvae): 1.30; Selectivity Index P. falc 3D7 (zebrafish larvae): 6.2
3 | CC1=C[C@@H](C)[C@H]2[C@@H]3C(=O)[C@@](F)(Cl)C(=O)[C@H](C)C(=O)O[C@@H](C)/C=C/C=C\[C@@H](C)[C@@H]3C=C[C@@H]2C1 [ChA-4′F] | – | – | – | – | – | – | – | 1.6 (≈ 3.46 µM) | MIC (S. aureus Newman): 0.8 µg/mL (≈ 1.73 µM); MIC (S. epidermidis DSM-28765): > 6.4 µg/mL; MIC [1]: 1.6 µg/mL (≈ 3.46 µM); MIC (E. faecium DSM-20477): 0.8 µg/mL (≈ 1.73 µM); MIC [2]: 1.6 µg/mL (≈ 3.46 µM)
4 | CC1=C[C@@H](C)[C@H]2[C@@H]3C(=O)[C@@](C)(Cl)C(=O)[C@H](C)C(=O)O[C@@H](C)/C=C/C=C\[C@@H](C)[C@@H]3C=C[C@@H]2C1 [ChA-4′Me] | – | – | – | – | – | – | – | 1.6 (≈ 3.49 µM) | MIC (S. aureus Newman): 1.6 µg/mL (≈ 3.49 µM); MIC (S. epidermidis DSM-28765): > 1.6 µg/mL; MIC [1]: 1.6 µg/mL (≈ 3.49 µM); MIC (E. faecium DSM-20477): 0.8 µg/mL (≈ 1.74 µM); MIC [2]: 0.8 µg/mL (≈ 1.74 µM)
5 | CC1=CC(C)C2C(C=CC3C(C)C=CC=CC(C)OC(=O)C(C)C(=O)C(Cl)=C(O)C32)C1 (stereo not drawn) [ChB1, reference compound] | 0.2 (≈ 0.449 µM) | 0.2 (≈ 0.449 µM) | 0.4 (≈ 0.899 µM) | 0.8 (≈ 1.8 µM) | 0.1 (≈ 0.225 µM) | 0.1 (≈ 0.225 µM) | – | – | –
6 | CC1=CC(C)C2C(C=CC3C(C)C=CC=CC(C)OC(=O)C(C)(C)C(=O)C(Cl)=C(O)C32)C1 (stereo not drawn) [ChB1-2′Me] | 0.4 (≈ 0.871 µM) | 0.8 (≈ 1.74 µM) | 0.8 (≈ 1.74 µM) | 0.8 (≈ 1.74 µM) | 0.2 (≈ 0.436 µM) | 0.4 (≈ 0.871 µM) | 12310 | – | Selectivity Index S. aureus (zebrafish larvae): 14.1; Selectivity Index P. falc 3D7 (zebrafish larvae): 114.0
7 | C=C1C[C@H]2C=C[C@@H]3[C@@H](C(=O)C(Cl)(Cl)C(=O)[C@H](C)C(=O)O[C@@H](C)/C=C/C=C\[C@H]3C)[C@@H]2[C@H](C)C1Cl (stereo partly drawn) [ChA-9′Cl] | – | – | – | – | – | – | – | 0.4 (≈ 0.778 µM) | MIC (S. aureus Newman): 0.4 µg/mL (≈ 0.778 µM); MIC (S. epidermidis DSM-28765): 0.4 µg/mL (≈ 0.778 µM); MIC [1]: 0.4 µg/mL (≈ 0.778 µM); MIC (E. faecium DSM-20477): 0.2 µg/mL (≈ 0.389 µM); MIC [2]: 0.2 µg/mL (≈ 0.389 µM)
8 | CC1=C[C@@H](C)[C@H]2[C@@H]3C(O)=C(SS)C(=O)[C@H](C)C(=O)O[C@@H](C)/C=C/C=C\[C@@H](C)[C@@H]3C=C[C@@H]2C1 [thiotonil] | 0.4 (≈ 0.843 µM) | 0.2 (≈ 0.421 µM) | 0.4 (≈ 0.843 µM) | 0.4 (≈ 0.843 µM) | 0.025 (≈ 0.0527 µM) | 0.025 (≈ 0.0527 µM) | – | – | IC50 [3]: 67.4 ± 8.6 nM; Selectivity Index S. aureus (zebrafish larvae): >62.5; Selectivity Index P. falc 3D7 (zebrafish larvae): >892.9
9 | CC1=CC(C)C2C(C=CC3C(C)C=CC=CC(C)OC(=O)CC(=O)CC(=O)C32)C1 (stereo not drawn) [dehalogenil-2′DM, 2′Demethyldehalogenil] | – | – | – | – | – | – | 27030 | 1.6 (≈ 4.04 µM) | IC50 ([3]; Plasmodium falciparum): 499 ± 86.8 nM; MIC (S. aureus Newman): 0.8 µg/mL (≈ 2.02 µM); MIC (S. epidermidis DSM-28765): 3.2 µg/mL (≈ 8.07 µM); MIC [1]: 0.8 µg/mL (≈ 2.02 µM); MIC (E. faecium DSM-20477): 0.8 µg/mL (≈ 2.02 µM); MIC [2]: 0.8 µg/mL (≈ 2.02 µM); selectivity ratio [4, 6]: 13.4; selectivity ratio [4, 7]: 66.2
10 | CC1=CC(C)C2C(C=CC3C(C)C=CC=CC(C)OC(=O)C(C)C(=O)CC(=O)C32)C1 (stereo not drawn) [dehalogenil-2′Epi] | 0.2 (≈ 0.487 µM) | 0.2 (≈ 0.487 µM) | 0.4 (≈ 0.974 µM) | 0.1 (≈ 0.244 µM) | 0.05 (≈ 0.122 µM) | 0.1 (≈ 0.244 µM) | 38460 | – | IC50 [3]: 25.2 ± 1.63 nM; selectivity ratio [4, 6]: 78.9; selectivity ratio [4, 7]: 1370
11 | CC1=CC(C)C2C(C=CC3C(C)C=CC=CC(C)OC(=O)CC(=O)C(Cl)=C(O)C32)C1 (stereo not drawn) [ChB1-2′DM, 2′Demethylchlorotonil] | 0.4 (≈ 0.928 µM) | 0.4 (≈ 0.928 µM) | 1.6 (≈ 3.71 µM) | 0.4 (≈ 0.928 µM) | 0.4 (≈ 0.928 µM) | 0.4 (≈ 0.928 µM) | 33240 | – | Selectivity Index S. aureus (zebrafish larvae): 35.8
12 | CN(C)c1cc(NC(=O)CNC(C)(C)C)c(O)c2c1C[C@H]1C[C@H]3[C@H](N(C)C)C(=O)C(C(N)=O)=C(O)[C@@]3(O)C(=O)C1=C2O [tigecyclin] | – | – | – | – | – | – | – | – | MIC [5]: 1 to 16 µg/mL (≈ 1.71 to 27.3 µM); MIC50 [5]: 4 µg/mL (≈ 6.83 µM); MIC90 [5]: 8 µg/mL (≈ 13.7 µM); MIC (E. faecium): 0.5 to 16 µg/mL (≈ 0.854 to 27.3 µM); MIC50 (E. faecium): 2 µg/mL (≈ 3.41 µM); MIC90 (E. faecium): 2 µg/mL (≈ 3.41 µM)
13 | CCCCCCCCCC(=O)N[C@@H](Cc1c[nH]c2ccccc12)C(=O)N[C@H](CC(N)=O)C(=O)N[C@@H](CC(=O)O)C(=O)N[C@@H]1C(=O)NCC(=O)N[C@@H](CCCN)C(=O)N[C@@H](CC(=O)O)C(=O)N[C@H](C)C(=O)N[C@@H](CC(=O)O)C(=O)NCC(=O)N[C@H](CO)C(=O)N[C@@H]([C@H](C)CC(=O)O)C(=O)N[C@@H](CC(=O)c2ccccc2N)C(=O)O[C@@H]1C [daptomycin] | – | – | – | – | – | – | – | – | MIC50 [5]: 0.5 µg/mL (≈ 0.309 µM); MIC90 [5]: 4 µg/mL (≈ 2.47 µM); MIC (E. faecium): 0.5 to 4 µg/mL (≈ 0.309 to 2.47 µM); MIC50 (E. faecium): 2 µg/mL (≈ 1.23 µM); MIC90 (E. faecium): 4 µg/mL (≈ 2.47 µM)
14 | CC1C=CC=CC(C)C2C=CC3CC4(C)OC4C(C)C3C2C(=O)CC(=O)C(C)C(=O)O1 (stereo not drawn) [Dehalogenil-Epo1] | 3.2 (≈ 7.5 µM) | – | 3.2 (≈ 7.5 µM) | 3.2 (≈ 7.5 µM) | 3.2 (≈ 7.5 µM) | 3.2 (≈ 7.5 µM) | 9850 | 3.2 (≈ 7.5 µM) | selectivity ratio [4, 6]: 1.31; selectivity ratio [4, 7]: 4.9
